Measured values from patent US20100172854A1, “ANTIBACTERIAL FORMULATIONS” (priority 2007, published 2010).
In brackets after ≈: the same amount, converted by molar mass.

Assays:
Test in all cases: MBC assay
Assay type in all cases: cell-based
[1] = system: S. epidermidis NCTC 11047
Experimental: (§1) The staphylococci were cultured and maintained on Mueller-Hinton Medium (agar and broth) at pH 7.2; cultures were incubated aerobically at 37° C. for 19-20 hours.
(§2) This assay, normally carried out after an MIC assay, determines the minimum concentration of a compound that is lethal to the micro-organism being tested.
(§3) These samples were then individually sub-cultured on antibiotic-free agar medium, under the incubation conditions described above. Following incubation they were examined visually for microbial growth.

[2] = system: Staphylococcus hominis ATCC 27844
Experimental: as §1, §2, §3

[3] = system: Clostridium sporogenes ATCC 3584
Experimental: as §2, §3

[4] = system: Bacillus cereus ATCC 11778
Experimental: as §2, §3

[5] = system: Prevotella nigrescens ATCC 33563
Experimental: as §2, §3

[6] = system: Streptococcus pyogenes ATCC 12344
Experimental: as §2, §3

[7] = system: Clostridium difficile ATCC 7000057
Experimental: as §2, §3

[8] = system: Gardnerella vaginalis ATCC 14018
Experimental: as §2, §3

[9] = system: Enterococcus faecalis ATCC 29212; conditions: ATCC29212
Experimental: as §2, §3

[10] = system: Streptococcus sobrinus ATCC 33478
Experimental: as §2, §3

[11] = system: Listeria monocytogenes ATCC 15313
Experimental: as §2, §3

[12] = system: Corynebacterium mucifaciens ATCC 700355; conditions: ATCC700355
Experimental: as §2, §3

[13] = system: Actinomyces naeslundii ATCC 12104
Experimental: as §2, §3

## Cc1cc(Cc2cc(C)cc(C(C)(C)C)c2O)c(O)c(C(C)(C)C)c1 [AO 2246, 2,2′-methylene-bis(4-methyl-6-tert-butylphenol)]
[1]
  MIC/MBC Ratio: 0.5
[1]; Staphylococcus epidermidis, NCTC11047
  MBC: 7.8 µg/mL (≈ 22.9 µM)
[2]
  MIC/MBC Ratio: 0.25
[2]; ATCC27844
  MBC: 31.2 µg/mL (≈ 91.8 µM)
[3]
  MIC/MBC Ratio: 0.125
[3]; ATCC3584
  MBC: 31.2 µg/mL (≈ 91.8 µM)
[4]
  MIC/MBC Ratio: 0.5
[4]; ATCC11778
  MBC: 3.9 µg/mL (≈ 11.5 µM)
[5]
  MIC/MBC Ratio: <0.5
[5]; ATCC33563
  MBC: > 15.6 µg/mL
[6]
  MIC/MBC Ratio: 1
[6]; ATCC12344
  MBC: 0.98 µg/mL (≈ 2.88 µM)
[7]
  MIC/MBC Ratio: 1
[7]; Clostridioides difficile, ATCC7000057
  MBC: 3.9 µg/mL (≈ 11.5 µM)
[8]
  MIC/MBC Ratio: 1
[8]; ATCC14018
  MBC: 15.6 µg/mL (≈ 45.8 µM)
[9]; Enterococcus faecalis ATCC 29212
  MBC: 7.8 µg/mL (≈ 22.9 µM)
[9]; Enterococcus faecalis
  MIC/MBC Ratio: 0.25
[10]
  MIC/MBC Ratio: 0.5
[10]; ATCC33478
  MBC: 31.2 µg/mL (≈ 91.8 µM)
[11]
  MIC/MBC Ratio: 0.25
[11]; ATCC15313
  MBC: 7.8 µg/mL (≈ 22.9 µM)
[12]; Corynebacterium mucifaciens ATCC 700355
  MBC: 3.9 µg/mL (≈ 11.5 µM)
[12]; Corynebacterium mucifaciens
  MIC/MBC Ratio: 0.5
[13]
  MIC/MBC Ratio: 0.5
[13]; ATCC12104
  MBC: 3.9 µg/mL (≈ 11.5 µM)
